The record followed here is patent US20160075689A1, “POLYMERASE, ENDONUCLEASE, AND HELICASE INHIBITORS AND METHODS OF USING THEREOF” (THE BOARD OF TRUSTEES OF THE UNIVERSITY OF ARKANSAS, priority 2013, published 2016).

Where “and” joins values, the source holds several entries; their conditions need not be identical. Equal entries are not always repeated.

Assay [1] has as its target T1, EndoG (Homo sapiens, UniProt Q14249).
T1 sequence (Q14249 49-297): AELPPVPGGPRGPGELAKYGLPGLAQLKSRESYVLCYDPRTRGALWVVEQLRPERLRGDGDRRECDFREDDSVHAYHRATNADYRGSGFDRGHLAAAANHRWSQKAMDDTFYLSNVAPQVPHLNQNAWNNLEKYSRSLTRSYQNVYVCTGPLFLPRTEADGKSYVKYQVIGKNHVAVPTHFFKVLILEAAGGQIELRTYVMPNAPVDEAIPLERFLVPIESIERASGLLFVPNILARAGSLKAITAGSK
Description: Plasmid incision assay. It is filed as biochemical. Particulars: agarose gel, FIG. 9. The protocol: A reaction mixture was prepared containing 0.5 μg pECFP plasmid DNA, 2 mM CaCl2, 5 mM MgCl2, 10 mM Tris-HCl, pH 7.4, 0.5 mM dithiothreitol. The test compound [50 ng in DMSO (1 μl)] was added. Recombinant EndoG was then added to the final concentration of 200 ng/ml and the reaction was incubated for 1 h at 37° C. The reaction was terminated by adding 2 μl of 10 mM Tris-HCl, pH 7.4, 1% SDS, 25 mM EDTA, 7.2 mM bromophenol blue. The samples were run in 1% agarose gel in Tris-acetate-EDTA buffer (40 mM Tris, 20 mM acetic acid, 1 mM EDTA, pH 8), at 7 V/cm for 35 min, and DNA was stained with ethidium bromide. An EagleEye scanning densitometer (Stratagene, La Jolla, Calif.) was utilized to quantify the relative amount of endonuclease-treated plasmid DNA present in a covalently-closed circular (supercoiled) DNA, open circular DNA, or linear DNA, or in a digested form.

For assay [2], the target named is NS3-4A (Hepatitis C virus genotype 1b, UniProt P26663). Description: NS3 protease activity assay. Particulars: 25 μM compound, 50 nM NS3-4A, 100 nM substrate. The assay is classed as biochemical, HCV. The protocol: The protease activity of NS3 was analyzed in the presence of 25 μM ITBA-3-79, ITBA-3-82 or ITBA-3-85 by using 50 nM NS3-4A and 100 nM substrate (Ac-Asp-Glu-Asp-EDANS-Glu-Glu-Abu-L-Lactoyl-Ser-Lys DABCYL-NH2). The emission spectra of EDANS and the absorption spectra of DABCYL overlap making the peptide internally quenched. Cleaving of the substrate by the protease results in an increase in fluorescence that can be measured (λex−355 nm; λem, −500 nm). Telapravir (10 μM) was used as a positive control.
Sequence of NS3-4A (P26663 1027-1657): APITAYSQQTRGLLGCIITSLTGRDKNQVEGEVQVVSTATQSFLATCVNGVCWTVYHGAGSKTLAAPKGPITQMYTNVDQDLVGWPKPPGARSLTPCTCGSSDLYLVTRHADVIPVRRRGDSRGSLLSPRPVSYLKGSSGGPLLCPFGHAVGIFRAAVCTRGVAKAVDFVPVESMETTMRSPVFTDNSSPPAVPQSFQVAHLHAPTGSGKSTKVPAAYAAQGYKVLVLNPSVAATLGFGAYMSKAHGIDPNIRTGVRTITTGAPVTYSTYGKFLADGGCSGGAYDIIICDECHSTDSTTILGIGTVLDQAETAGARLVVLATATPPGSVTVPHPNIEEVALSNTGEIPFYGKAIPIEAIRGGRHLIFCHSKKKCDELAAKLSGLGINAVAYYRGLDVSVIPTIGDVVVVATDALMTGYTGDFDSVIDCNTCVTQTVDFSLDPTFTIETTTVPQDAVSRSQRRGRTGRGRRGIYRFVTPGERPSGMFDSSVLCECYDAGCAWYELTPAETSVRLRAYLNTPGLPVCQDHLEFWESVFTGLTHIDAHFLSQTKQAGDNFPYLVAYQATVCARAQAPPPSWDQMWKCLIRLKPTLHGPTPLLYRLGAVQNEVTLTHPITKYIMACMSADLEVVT
Sequence of NS3-4A (P26663 1658-1711): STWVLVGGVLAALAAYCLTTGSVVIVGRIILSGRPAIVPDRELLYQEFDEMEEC

Assay [3] concerns the target T2, HCV NS3 helicase (Hepatitis C virus genotype 1b, UniProt P26663).
T2 construct: analyze the helicase activity of NS3 helicase in the presence of the compounds; made in house
Description: Fluorescence-based helicase assay. The assay is classed as biochemical. The following applies: IC50 for inhibition of NS3 helicase, mean ± standard deviation of three data sets. The protocol:
A library of compounds was screened using a previously validated quantitative assay that measures helicase activity over time. The assay relies upon helicase-catalyzed displacement of a fluorescently-labeled oligonucleotide (FIG. 13A). The concentration of enzyme and compounds used was 250 nM and 20 μM respectively. The experiments were performed in triplicate. […] Three potential helicase inhibitors were identified using the fluorescence based assay. […] The inhibitor compounds identified in our screen were ITBA-3-79, ITBA-3-82 and ITBA-3-85 (FIG. 14A). […] The IC50 value for ITBA-3-79, ITBA-3-82 and ITBA-3-85-mediated inhibition of NS3 helicase ranged˜20 μM (FIG. 14C). The ATPase activity of NS3 (50 μM) was analyzed in the presence of ITBA-3-79, ITBA-3-82 and ITBA-3-85 using a coupled spectrophotometric assay (Raney and Benkovic 1995, (FIG. 15). The protease activity of NS3 was analyzed in the presence of ITBA-3-79, ITBA-3-82 and ITBA-3-85 by using 50 nM NS3-4A and 100 nM substrate (Ac-Asp-Glu-Asp-EDANS-Glu-Glu-Abu-L-Lactoyl-Ser-Lys DABCYL-NH2, FIG. 15. The NS3 helicase activity was analyzed in the presence of 25 μM ITBA-3-79, ITBA-3-82 and ITBA-3-85 (FIG. 16).
A fluorescence based quantitative assay that measures helicase activity over time was employed to screen the compounds. The concentration of enzyme and compounds used was 250 nM and 20 μM respectively. Helicase catalyzes the unwinding of a FAM-labeled dsDNA and the resulting increase in fluorescence is plotted (λex-485 nm; λem, −528 nm). The slope of the initial part of the plot was used to calculate the percentage helicase activity. […] The IC50 value for ITBA-3-79, ITBA-3-82 and ITBA-3-85-mediated inhibition of NS3 helicase was determined using the same assay.

Assay [4] concerns the target T3, NS3 helicase (Hepatitis C virus genotype 1b, UniProt P26663).
T3 construct: analyze the helicase activity of NS3 helicase in the presence of the compounds; made in house
Description: Gel-based helicase assay. The assay is classed as biochemical, HCV. Particulars: standard helicase assay. On the procedure:
Benchtop unwinding assays were performed to analyze the helicase activity of NS3 helicase in the presence of the compounds. The unwinding reaction was initiated by mixing the right (N53, compound, assay buffer) and left (radiolabeled substrate, ATP, assay buffer) reactions, which was then quenched. The ssDNA product formed over time is separated from dsDNA substrate by 20% native PAGE. The ratio of dsDNA substrate to ssDNA product is quantified using ImageQuant and the fraction of substrate unwound at each time-point is plotted as a function of time using Kaleidagraph software.

Assay [5] addresses T4, hpol η (Homo sapiens, UniProt Q9Y253).
T4 construct: human DNA polymerases η (amino acids 1-437); 6x-histidine (N, cleaved yes); GST (N, cleaved yes); made in house; host or cells: Escherichia coli BL21 (DE3)
T4 sequence (Q9Y253 1-437): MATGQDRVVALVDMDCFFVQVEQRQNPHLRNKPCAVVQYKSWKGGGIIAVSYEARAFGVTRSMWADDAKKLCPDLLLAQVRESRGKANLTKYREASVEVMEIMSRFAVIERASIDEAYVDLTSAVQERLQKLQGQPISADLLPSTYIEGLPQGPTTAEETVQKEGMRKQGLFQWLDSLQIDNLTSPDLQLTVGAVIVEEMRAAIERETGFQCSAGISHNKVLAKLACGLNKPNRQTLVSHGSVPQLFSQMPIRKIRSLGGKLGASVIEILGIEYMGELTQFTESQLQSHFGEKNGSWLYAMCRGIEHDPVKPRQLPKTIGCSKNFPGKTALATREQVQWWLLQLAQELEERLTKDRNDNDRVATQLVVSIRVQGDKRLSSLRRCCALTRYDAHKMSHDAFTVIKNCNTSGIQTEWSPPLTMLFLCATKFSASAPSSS
Description: Fluorescence-based DNA polymerase strand-displacement assay. The assay is classed as biochemical. From the text: A library of 320 compounds targeted against nucleic acid interacting proteins was screened for inhibition of polymerase activity using an assay that monitors fluorescence from a 5-carboxytetramethylrhodamine (TAMRA) labeled oligonucleotide. In order to prepare the DNA for the experiment, a TAMRA-labeled reporter (or displaced) strand (SEQ ID NO. 4: 5′-TTT TTT TTG C-TAMRA-3′) and unlabeled primer strand (SEQ ID NO. 5: 5′-TCA CCC TCGTAC GAC TCT T-3′) were annealed to a Black Hole Quencher (BHQ)-labeled template strand (SEQ ID NO. 6: 5′BHQ2-GCAAAAAAAAAA GAG TCG TAC GAG GGT GA-3′) in a solution containing 10 mM Tris (pH 8.0), 50 mM NaCl, 2 mM MgCl2, and dH2O. The template (T), primer (P) and displaced strand (D) oligonucleotides were mixed in a 1:1.5:1.5 (T:P:D) molar ratio for annealing. After an incubation period of three minutes at 95° C., the DNA was allowed to slowly cool to room temperature overnight.
The fluorescence-based assay used to screen for polymerase inhibitors measures polymerase-catalyzed displacement of a TAMRA-labeled oligonucleotide (FIG. 1). For the initial screen, the experimental setup included 50 nM hpol η), 50 nM DNA, 6 μM compound, 100 μM dTTP and 1 mM MgCl2. The reactions were performed in 50 mM Tris (pH 8.0) buffer containing 40 mM NaCl, 2 mM dithiothreitol, and 0.01% (v/v) Tween-20. The concentration of dimethyl sulfoxide (DMSO) was 3.5% (v/v) for the initial screen. The enzyme, the compounds (including a DMSO control) and dTTP were combined with the reaction buffer in individual wells of each half-plate and allowed to incubate for 5-10 minutes. The DNA substrate was subsequently added to initiate the reaction and the plate was read immediately using a BioTek SynergyH4 plate reader (λex=525 nm, λem=598 run). The final reaction volume was 200 μL. Fluorescence was monitored for 90 minutes for most reactions. The initial portion of the velocity curve was analyzed by linear regression to calculate an observed rate of product formation. For each data set, eight DMSO control experiments were averaged to obtain our measure of 100% activity. Rates of product formation in the presence of each compound were then divided by the rate of the DMSO control to produce a relative measure of polymerase activity (0 to 1, with 1 being no inhibition).
In order to determine the IC50 value for each enzyme, the fluorescence-based polymerase assay was repeated with increasing concentrations of inhibitor. The conditions varied slightly for each enzyme. With the exception of hpol ι, all IC50 experiments were performed in 50 mM Tris HCl (pH 8.0) buffer containing 1 mM MgCl2, 0.1 mM dTTP, 40 mM NaCl, 2 mM DTT, 0.01% (v/v) Tween-20 and 10% (v/v) DMSO. For experiments with hpol ι, KCl was substituted for NaCl and 0.25 mM MnCl2 was substituted for MgCl2. The concentration of inhibitor was 0, 1, 5, 10, 20, 30, 50, 75 and 100 μM. The enzyme and DNA concentrations were as follows: 10 nM hpol η, 50 nM DNA; 3 nM hpol κ, 60 nM DNA; 50 nM hpol ι, 50 nM DNA; 10 nM Dpo4, 50 nM DNA; 100 nM Dpo1, 50 nM DNA; 50 nM hpol β, 50 nM DNA; 50 nM HIV-1 RT, 50 nM DNA. The percent activity was plotted as a function of the log of inhibitor concentration and fit to a four-parameter logistic model (equation 1) using Prism software (Graph Pad, San Diego, Calif.): […]

In assay [6] the target is T1, EndoG. Description: High-throughput EndoG screening assay. It is filed as biochemical. The following applies: 20 min; compound 1 μM; read-out: % EndoG activity in the presence of the compound. The protocol: A reaction mixture was prepared in each well of a white 96-well plate (Costar, Corning, N.Y.) as follows: 0.25 μM Cy5.5-labeled oligonucleotide (described in US provisional patent filed Oct. 19, 2012, Ser. No. 61/716,097) 0.3 mM MgCl2, 10 mM Tris-HCl, pH 7.4, 1 μl DMSO containing 5 or 50 ng of test compound, and nuclease-free water for a total reaction volume of 100 μl. The background (negative control) and uninhibited EndoG samples were measured using DMSO only, or DMSO containing recombinant EndoG (4 μg/ml), respectively. After addition of EndoG, fluorescence intensity was kinetically measured on a Bio-Tek Synergy 4.0 plate reader at 37° C. and mean velocity (mRFU/min) within 20 min was automatically calculated by the plate reader. The background was subtracted prior to the calculation of EndoG activity (%). The percent of EndoG activity was calculated from the mean velocity of a compound divided by the mean velocity of DMSO with recombinant EndoG, and the obtained value multiplied by 100.

T2 sequence (P26663 1027-1657): as the sequence (P26663 1027-1657) above
T3 sequence (P26663 1027-1657): as above

Turning to `[Cl-].[Cl-].[Zn+2]` [ZnCl2, reference compound], the “protection of supercoiled plasmid DNA from degradation by EndoG” value in assay [1] is listed as “inhibited”. With `COc1ccc2c(c1)c(C=C1C(=O)NC(=S)NC1=O)cn2C(=O)c1cccc2ccccc12` [ITBA-3-85], the NS3 protease activity result in assay [2] is “do not block protease activity”. Also, the IC50 in assay [3] was ~20 µM and 23.5 µM. In addition, the “NS3 helicase activity, gel electrophoresis” value in assay [4] is “confirmed the inhibition”. As to `O=C1NC(=S)NC(=O)C1=Cc1cn(C(=O)c2cccc3ccccc23)c2ccc(Cl)cc12` [ITBA-17], the IC50 in assay [5] amounted to 15.8 ± 3.3 µM. Also, in assay [5] (50 μM compound), the “hpol η percent activity relative to the control assay” value is listed as “most potent inhibitor”. As for `O=C1NC(=S)NC(=O)C1=Cc1cn(C(=O)c2ccc3ccccc3c2)c2ccccc12` [ITBA-3-79], the NS3 protease activity result in assay [2] was “do not block protease activity”. Further, the IC50 in assay [3] is ~20 µM and 21.6 µM. In addition, the “NS3 helicase activity, gel electrophoresis” value in assay [4] is on record as “confirmed the inhibition”. Take `CN1C(=O)C(=Cc2cn(C(=O)c3cccc4ccccc34)c3ccc(Cl)cc23)C(=O)N(C)C1=O` [PNR-6-59]: in assay [6], the remaining activity at 1 µM amounted to 47.5%. The same measure, in the same setting: the same measure for `CN1C(=O)C(=Cc2cn(Cc3ccc4ccccc4c3)c3ccc(Cl)cc23)C(=O)N(C)C1=O` [PNR-7-3]: 59.1%; for `Cc1c(C=C2C(=O)NC(=S)NC2=O)c2ccccc2n1Cc1cccc(C(F)(F)F)c1` [PNR-7-24]: 73.6%; for `O=C1NC(=O)C(=Cc2cn(Cc3ccccc3Br)c3ccccc23)C(=O)N1` [PNR-7-7]: 14.1%. With `COc1cc(Cn2c(C)c(C=C3C(=O)NC(=S)NC3=O)c3ccccc32)cc(OC)c1` [PNR-5-96], the remaining activity at 1 µM in assay [6] was found to be 71.5%.

By IC50 is commonly meant the concentration that inhibits the measured activity by half.
